Tested on: Harding-Passey (HP) melanomas
Experiment: Boron concentrations in melanoma tumor, blood and cerebrum of mice after intraperitoneal administration (prompt gamma analysis)
Parameters: species or system female BALB/cJ mice
Conditions: mouse, in vivo, ip
Protocol: Aqueous solutions of [^10 B]Na2 B12 H11 SH or [^10 B]Na4 B24 H22 S2 were infused slowly intraperitoneally [~200 μl capacity osmotic pump, model 2001, Alza Corp., Palo Alto, Calif.] or were injected intraperitoneally promptly into 15-20 g female BALB/cJ mice bearing subcutaneously implanted Harding-Passey (HP) melanomas. In experiment 6 (Table 1), 5.3×10^-3 M Na2 S2 O5 was added to retard oxidation of [B12 H11 SH]^2-. Mice were deeply anesthetized with ether and then killed by exsanguination at times specified in Table 1. The osmotic pumps were designed to function for 219±6 hr, although the precise duration of their infusion in each mouse is unknown.
Tissue and blood specimens in quartz test tubes, with sufficient H2 O added to bring each sample to a total weight of 1.00 g, were analyzed for boron by counting 478 keV gamma photons from the ^10 B(n,αγ)^7 Li reaction during irradiation by slow neutrons.

Na2 B12 H11 SH
Blood boron concentration (34.5 mg/kg, 24 h): 6.3 ± 2.2 μgB/g
Cerebrum boron concentration (34.5 mg/kg, 24 h): 4.9 ± 3.8 μgB/g
Concentration ratio Tumor:Blood (34.5 mg/kg, 24 h): 1.0
Tumor boron concentration (34.5 mg/kg, 24 h): 6.3 ± 2.2 μgB/g
Blood boron concentration (35.4 mg/kg, 6 h): 3.8 ± 9.9 μgB/g
Cerebrum boron concentration (35.4 mg/kg, 6 h): 3.8 ± 3.4 μgB/g
Concentration ratio Tumor:Blood (35.4 mg/kg, 6 h): 2.3
Tumor boron concentration (35.4 mg/kg, 6 h): 8.7 ± 9.9 μgB/g
Blood boron concentration (35.5 mg/kg, 12 h): 5.5 ± 4.8 μgB/g
Cerebrum boron concentration (35.5 mg/kg, 12 h): 0.9 ± 1.6 μgB/g
Concentration ratio Tumor:Blood (35.5 mg/kg, 12 h): 1.0
Tumor boron concentration (35.5 mg/kg, 12 h): 5.5 ± 4.8 μgB/g
Blood boron concentration (187 mg/kg, 190 h): 13.2 ± 6.3 μgB/g
Cerebrum boron concentration (187 mg/kg, 190 h): 7.0 μgB/g
Concentration ratio Tumor:Blood (187 mg/kg, 190 h): 1.0
Tumor boron concentration (187 mg/kg, 190 h): 12.6 ± 1.7 μgB/g
Blood boron concentration (187 mg/kg, 219 h): 4.9 ± 1.1 μgB/g
Cerebrum boron concentration (187 mg/kg, 219 h): 1.0 ± 0.4 μgB/g
Concentration ratio Tumor:Blood (187 mg/kg, 219 h): 1.6
Tumor boron concentration (187 mg/kg, 219 h): 7.9 ± 1.5 μgB/g
Blood boron concentration (195 mg/kg, 219 h): 5.5 ± 3.0 μgB/g
Cerebrum boron concentration (195 mg/kg, 219 h): 1.2 ± 1.0 μgB/g
Concentration ratio Tumor:Blood (195 mg/kg, 219 h): 1.5
Tumor boron concentration (195 mg/kg, 219 h): 8.5 ± 2.9 μgB/g
Blood boron concentration (262 mg/kg, 234 h): 7.7 ± 4.6 μgB/g
Cerebrum boron concentration (262 mg/kg, 234 h): 3.2 ± 0.0 μgB/g
Concentration ratio Tumor:Blood (262 mg/kg, 234 h): 1.8
Tumor boron concentration (262 mg/kg, 234 h): 14.1 ± 1.1 μgB/g

Reference: USH505H, “Boron uptake in tumors, cerebrum and blood from [10B]NA4B24H22S2” (The United States of America as represented by the United …, priority 1986, dated 1988)
